The first assay has as its target T1, PDE2 (Bos taurus, UniProt P14099).
T1 sequence (P14099 1-921): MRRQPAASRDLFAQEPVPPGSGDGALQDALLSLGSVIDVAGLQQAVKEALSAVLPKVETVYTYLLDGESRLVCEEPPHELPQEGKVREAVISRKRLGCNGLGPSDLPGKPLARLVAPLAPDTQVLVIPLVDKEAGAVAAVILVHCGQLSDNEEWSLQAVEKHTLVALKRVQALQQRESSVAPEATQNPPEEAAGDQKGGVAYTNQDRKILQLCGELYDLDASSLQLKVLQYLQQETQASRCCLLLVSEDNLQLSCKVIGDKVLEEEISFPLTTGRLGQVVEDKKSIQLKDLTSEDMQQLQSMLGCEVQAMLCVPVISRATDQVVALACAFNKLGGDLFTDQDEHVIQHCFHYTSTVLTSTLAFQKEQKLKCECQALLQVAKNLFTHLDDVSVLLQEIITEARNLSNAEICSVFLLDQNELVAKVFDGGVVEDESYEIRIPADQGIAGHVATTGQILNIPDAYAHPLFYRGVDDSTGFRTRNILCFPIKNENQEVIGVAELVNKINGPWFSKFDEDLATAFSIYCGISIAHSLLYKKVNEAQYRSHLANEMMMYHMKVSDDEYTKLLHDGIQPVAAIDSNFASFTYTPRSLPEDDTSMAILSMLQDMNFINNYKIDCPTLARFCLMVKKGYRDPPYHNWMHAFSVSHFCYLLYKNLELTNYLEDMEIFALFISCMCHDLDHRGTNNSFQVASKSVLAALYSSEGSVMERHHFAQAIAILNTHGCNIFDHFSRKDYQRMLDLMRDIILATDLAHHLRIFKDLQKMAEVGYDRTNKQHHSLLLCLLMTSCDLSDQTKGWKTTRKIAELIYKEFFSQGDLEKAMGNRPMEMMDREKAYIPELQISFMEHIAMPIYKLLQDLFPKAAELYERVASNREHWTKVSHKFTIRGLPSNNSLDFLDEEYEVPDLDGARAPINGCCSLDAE
Description: Radioenzymatic phosphodiesterase assay: PDE2 inhibition. The settings on record: Table 1; 10 μM test compound. In kind it is biochemical, bovine. On the procedure:
Nucleoside radioactivity was determined by liquid scintillation.
For `COc1ccc(-c2ccc3c(c2)C(c2cccc(C(N)=O)c2)=NCC(=O)N3C)c(OC)c1` [Example 33, 3-[7-(2,4-Dimethoxy-phenyl)-1-methyl-2-oxo-2,3-dihydro-1H-benzo[e][1.4]diazepin-5-yl]-benzamide], the “PDE2 percentage of inhibition at 10 μM” value was determined as 99%.

Turning to `COc1cc2c(cc1-c1ccc(C(N)=O)cc1)C(c1cccc(C(N)=O)c1)=NCC(=O)N2` [Example 34, 3-[8-Methoxy-7-(4-benzamide)-2-oxo-2,3-dihydro-1H-benzo[e][1,4]diazepin-5-yl]-benzamide], the “PDE2 percentage of inhibition at 10 μM” value was determined as 98%.

Still in this assay, the particulars now being: Table 1; 10 μM test compound; read-out: PDE2 percentage of inhibition at 10 μM.
One may read the inhibition as the percentage by which the read-out fell short of the control. Take `COc1ccc(-c2cc3c(cc2OC)N(C)C(=O)CN=C3c2cccc(C#N)c2)cc1` [Example 4, 3-[8-Methoxy-7-(4-methoxy-phenyl)-1-methyl-2-oxo-2,3-dihydro-1H-benzo[e][1,4]diazepin-5-yl]-benzonitrile]: the inhibition at 10 µM turned out to be 97%.

For `COc1cc2c(cc1-c1ccccc1Cl)C(c1cccc(C#N)c1)=NCC(=O)N2C` [Example 5, 3-[7-(2-Chloro-phenyl)-8-methoxy-1-methyl-2-oxo-2,3-dihydro-1H-benzo[e][1,4]diazepin-5-yl]-benzonitrile], the inhibition at 10 µM came to 98%.

For `COc1cc2c(cc1-c1ccco1)C(c1cccc(C#N)c1)=NCC(=O)N2C` [Example 8, 3-(7-Furan-2-yl-8-methoxy-1-methyl-2-oxo-2,3-dihydro-1H-benzo[e][1,4]diazepin-5-yl)-benzonitrile], the inhibition at 10 µM is 47%.

As for `CN1C(=O)CN=C(c2cccc(C=O)c2)c2cc(-c3ccccc3)ccc21` [Example 9, 3-(1-Methyl-2-oxo-7-phenyl-2,3-dihydro-1H-benzo[e][1,4]diazepin-5-yl)-benzaldehyde], the inhibition at 10 µM amounted to 84%.

Turning to `COc1ccccc1-c1cc2c(cc1OC)NC(=O)CN=C2c1cccc(C#N)c1` [Example 10, 3-[8-Methoxy-7-(2-methoxy-phenyl)-2-oxo-2,3-dihydro-1H-benzo[e][1,4]diazepin-5-yl]-benzonitrile], the inhibition at 10 µM stood at 94%.

For `COc1ccccc1-c1ccc2c(c1)C(c1cccc(C#N)c1)=NCC(=O)N2C` [Example 12, 3-[7-(2-Methoxy-phenyl)-1-methyl-2-oxo-2,3-dihydro-1H-benzo[e][1,4]diazepin-5-yl]-benzonitrile], the inhibition at 10 µM was 40%.

`COc1cccc(-c2ccc3c(c2)C(c2cccc(C#N)c2)=NCC(=O)N3C)c1` [Example 13, 3-[7-(3-Methoxy-phenyl)-1-methyl-2-oxo-2,3-dihydro-1H-benzo[e][1,4]diazepin-5-yl]-benzonitrile]: the inhibition at 10 µM was 91%.

Regarding `COc1ccc(-c2ccc3c(c2)C(c2cccc(C#N)c2)=NCC(=O)N3C)cc1` [Example 14, 3-[7-(4-Methoxy-phenyl)-1-methyl-2-oxo-2,3-dihydro-1H-benzo[e][1,4]diazepin-5-yl]-benzonitrile], the inhibition at 10 µM was 92%.

With `COc1cccc(OC)c1-c1ccc2c(c1)C(c1cccc(C#N)c1)=NCC(=O)N2C` [Example 16, 3-[7-(2,6-Dimethoxy-phenyl)-1-methyl-2-oxo-2,3-dihydro-1H-benzo[e][1,4]diazepin-5-yl]-benzonitrile], the inhibition at 10 µM is 100%.

Regarding `CCOc1cc2c(cc1-c1ccccc1)C(c1ccccc1)=NCC(=O)N2CC` [Example 18, 8-Ethoxy-1-ethyl-5,7-diphenyl-1,3-dihydro-benzo[e][1,4]diazepin-2-one], the inhibition at 10 µM turned out to be 27%.

In the case of `COc1cc2c(cc1-c1ccc(F)cc1)C(c1cccc(C(N)=O)c1)=NCC(=O)N2C` [Example 20, 3-[7-(4-Fluoro-phenyl)-8-methoxy-1-methyl-2-oxo-2,3-dihydro-1H-benzo[e][1,4]diazepin-5-yl]-benzamide], the inhibition at 10 µM came out at 99%.

With `COc1cc2c(cc1-c1cccc(Cl)c1)C(c1cccc(C(N)=O)c1)=NCC(=O)N2C` [Example 24, 3-[7-(3-Chloro-phenyl)-8-methoxy-1-methyl-2-oxo-2,3-dihydro-1H-benzo[e][1,4]diazepin-5-yl]-benzamide], the inhibition at 10 µM was 98%.

On to `COc1cc2c(cc1-c1ccc(Cl)cc1)C(c1cccc(C(N)=O)c1)=NCC(=O)N2C` [Example 25, 3-[7-(4-Chloro-phenyl)-8-methoxy-1-methyl-2-oxo-2,3-dihydro-1H-benzo[e][1,4]diazepin-5-yl]-benzamide], for which the inhibition at 10 µM was 97%.

On to `COc1cc2c(cc1-c1ccco1)C(c1cccc(C(N)=O)c1)=NCC(=O)N2C` [Example 26, 3-(7-Furan-2-yl-8-methoxy-1-methyl-2-oxo-2,3-dihydro-1H-benzo[e][1,4]diazepin-5-yl)-benzamide], for which the inhibition at 10 µM stood at 71%.

Consider `COc1ccccc1-c1ccc2c(c1)C(c1cccc(C(N)=O)c1)=NCC(=O)N2C` [Example 28, 3-[7-(2-methoxy-phenyl)-1-methyl-2-oxo-2,3-dihydro-1H-benzo[e][1,4]diazepin-5-yl]-benzamide], for which the inhibition at 10 µM was found to be 97%.

For the molecule `COc1cccc(-c2ccc3c(c2)C(c2cccc(C(N)=O)c2)=NCC(=O)N3C)c1` [Example 29, 3-[7-(3-methoxy-phenyl)-1-methyl-2-oxo-2,3-dihydro-1H-benzo[e][1,4]diazepin-5-yl]-benzamide], the inhibition at 10 µM was 95%.

Consider `COc1ccc(-c2ccc3c(c2)C(c2cccc(C(N)=O)c2)=NCC(=O)N3C)cc1` [Example 30, 3-[7-(4-methoxy-phenyl)-1-methyl-2-oxo-2,3-dihydro-1H-benzo[e][1,4]diazepin-5-yl]-benzamide], for which the inhibition at 10 µM was 95%.

In the case of `COc1ccccc1-c1cc2c(cc1OC)NC(=O)CN=C2c1cccc(C(N)=O)c1` [Example 36, 3-[8-Methoxy-7-(2-methoxy-phenyl)-2-oxo-2,3-dihydro-1H-benzo[e][1,4]diazepin-5-yl]-benzamide], the inhibition at 10 µM is 94%.

Staying with this assay, now noted: read-out: PDE2 percentage of inhibition at 10 μM.
On to `COc1cc2c(cc1-c1ccccc1)C(c1cccc(C#N)c1)=NCC(=O)N2C` [Example 1, 3-(8-Methoxy-1-methyl-2-oxo-7-phenyl-2,3-dihydro-1H-benzo[e][1,4]diazepin-5-yl)-benzonitrile], for which the inhibition at 10 µM worked out at 83%.

As to `COc1cc2c(cc1-c1ccc(F)cc1)C(c1cccc(C#N)c1)=NCC(=O)N2C` [Example 2, 3-[7-(4-Fluoro-phenyl)-8-methoxy-1-methyl-2-oxo-2,3-dihydro-1H-benzo[e][1,4]diazepin-5-yl]-benzonitrile], the inhibition at 10 µM was 97%.

For the molecule `COc1ccccc1-c1cc2c(cc1OC)N(C)C(=O)CN=C2c1cccc(C#N)c1` [Example 3, 3-[8-Methoxy-7-(2-methoxy-phenyl)-1-methyl-2-oxo-2,3-dihydro-1H-benzo[e][1,4]diazepin-5-yl]-benzonitrile], the inhibition at 10 µM is 100%.

For `COc1cc2c(cc1-c1cccc(Cl)c1)C(c1cccc(C#N)c1)=NCC(=O)N2C` [Example 6, 3-[7-(3-Chloro-phenyl)-8-methoxy-1-methyl-2-oxo-2,3-dihydro-1H-benzo[e][1,4]diazepin-5-yl]-benzonitrile], the inhibition at 10 µM was found to be 96%.

On to `COc1cc2c(cc1-c1ccc(Cl)cc1)C(c1cccc(C#N)c1)=NCC(=O)N2C` [Example 7, 3-[7-(4-Chloro-phenyl)-8-methoxy-1-methyl-2-oxo-2,3-dihydro-1H-benzo[e][1,4]diazepin-5-yl]-benzonitrile], for which the inhibition at 10 µM worked out at 91%.

In the case of `CN1C(=O)CN=C(c2cccc(C#N)c2)c2cc(-c3ccccc3)ccc21` [Example 11, 3-(1-Methyl-2-oxo-7-phenyl-2,3-dihydro-1H-benzo[e][1,4]diazepin-5-yl)-benzonitrile], the inhibition at 10 µM was determined as 79%.

In the case of `COc1ccc(OC)c(-c2ccc3c(c2)C(c2cccc(C#N)c2)=NCC(=O)N3C)c1` [Example 15, 3-[7-(2,5-Dimethoxy-phenyl)-1-methyl-2-oxo-2,3-dihydro-1H-benzo[e][1,4]diazepin-5-yl]-benzonitrile], the inhibition at 10 µM worked out at 98%.

Turning to `COc1ccc(-c2ccc3c(c2)C(c2cccc(C#N)c2)=NCC(=O)N3C)c(OC)c1` [Example 17, 3-[7-(2,4-Dimethoxy-phenyl)-1-methyl-2-oxo-2,3-dihydro-1H-benzo[e][1,4]diazepin-5-yl]-benzonitrile], the inhibition at 10 µM amounted to 98%.

With `CN1C(=O)CN=C(c2cccc(C(N)=O)c2)c2cc(-c3ccccc3)ccc21` [Example 27, 3-(1-methyl-2-oxo-7-phenyl-2,3-dihydro-1H-benzo[e][1,4]diazepin-5-yl)-benzamide], the inhibition at 10 µM is 96%.

Turning to `CCCCCCN1C(=O)CN=C(c2cccc(C#N)c2)c2cc(-c3ccccc3OC)c(OC)cc21` [Example 35, 3-[1-Hexyl-8-methoxy-7-(2-methoxy-phenyl)-2-oxo-2,3-dihydro-1H-benzo[e][1,4]diazepin-5-yl]-benzonitrile], the inhibition at 10 µM amounted to 39%.

The values above are taken from patent US7410963B2, “Benzo-1,4-diazepin-2-one derivatives as phosphodiesterase PDE2 inhibitors, preparation and therapeutic use thereof” (VIA Pharmaceuticals, Inc., priority 2003, dated 2008).
